{
  "source": "patent US5739104A",
  "about": "“Anti-fungal agents” (Schering Corporation, priority 1995, dated 1998)",
  "key": {"C. Albicans, C-43": {"tested_on": "C. Albicans, C-43", "assay": "In vivo anti-fungal activity, C. albicans infection study in mice", "conditions": "once a day for 4 days starting 4 hours post infection", "procedure": "In vivo anti-fungal activity for compounds of formula I of the invention was determined by using the test protocol set forth in Cacciapuoti et al, ANTIMICROBIAL AGENTS AND CHEMOTHERAPY, Vol.36, No. 1, January 1992, p. 64-67, which is hereby incorporated by reference. The specific test protocol used to obtain the data given below, appears in the just above mentioned article at pages 64 and 65 under the heading \"C. albicans infection studies\". Data obtained from this test protocol are as follows:\nThe numbering for the compounds tested is the same as the numbering used for the compounds in the rest of the application. The mice used in the above experiment were Charles River, white, male, mice weighing between 18 and 20 grams. The organism used to infect the mice was C. Albicans, C-43, 1XE6 CFU/mice, 0.1 M1 IV. The treatment was once a day for 4 days starting 4 hours post infection for those compounds which have a * next to them. For those compounds which have no * next to them, the treatment was once a day for 4 days starting 24 hours post infection. The dose was 0.1 ml/mouse in either case. The vehicle used with the compounds was Tween 80:Ethanol:PBS (1:9:40 or 2%:18%:80%)"}, "[1]": {"tested_on": "Candida albicans, Candida tropicalis, Candida stellatoidea, Candida parapsilosis, Candida krusei", "assay": "In vitro anti-fungal microtiter minimum inhibitory concentration (MIC) test, geometric mean over Candida strains", "type": "cell-based", "procedure": "The geometric mean is taken from the following strains\nCandida stellatoidea C184\nThe minimum inhibitory concentrations (GMMICs-R(μg/ml) for Ca (SDB) Ca (EMEM) (Derm) and (Asp) for the compounds of formula I of the invention are as shown in Table 2 above.\nThe minimum inhibitory concentrations were determined in accordance with the procedure set forth just below.\nIn vitro anti-fungal activity was determined in microtiter minimum inhibitory concentration (MIC) tests using Yeast Nitrogen Broth (YNB without amino acids, Difco., Detroit, Mich.) at pH 5.4. Yeasts were grown overnight in Sabouraud Dextrose Broth at 28° C. with shaking, and concentrations adjusted in sterile saline using a spectrophoptometer at 540 mμ. Compounds were dissolved in various vehicles and diluted in media to twice the final concentrations. The Cetus Pro/Pette system was used to serially dilute 50 μl in round bottom 96 well plates (Falcon, Lincoln Park, N.J.). The turbidometrically adjusted yeast suspensions were diluted 1:3,000 in YNB. These dilutions when added to the wells, produced a final inoculum of 3×10^3 /ml. Plates were incubated at 37° C. for 48 hours. MICs were defined as the lowest concentrations of compound that prevented visible growth. MICs were taken against the following organisms and expressed in the table above as the geometric mean."}, "[2]": {"conditions": "EMEM, geometric mean over 14 Candida strains, 37° C., 48 hours"}, "[3]": {"conditions": "SDB, geometric mean over 14 Candida strains, 37° C., 48 hours"}},
  "note": "Starred links: 1 amine or outer side, 2 acyl side, 3 side chain; linkers in the order of their positions; H or OH if unused. Non-standard residues stand in square brackets, D forms with d. Residues, ends and D or L forms follow the SMILES beside them. X1 = O=C([C@H](O[*:1])C1CCCCC1)[*:2]; X2 = O=C([C@H](O[*:1])c1ccccc1)[*:2]; X3 = O=C([C@H](O[*:1])C1CCCC1)[*:2]; X4 = O=C([C@@H](O[*:1])C1CC1)[*:2]; NMeF = CN[C@@H](Cc1ccccc1)C(=O)O; NMeT = CN[C@H](C(=O)O)[C@@H](C)O; aIle = CC[C@@H](C)[C@H](N)C(=O)O; NMeV = CN[C@H](C(=O)O)C(C)C; dHiv = CC(C)[C@@H](O)C(=O)O; Pip = O=C(O)[C@@H]1CCCCN1; Aze = O=C(O)[C@@H]1CCN1",
  "data": [
    {"smiles": "CC[C@@H](C)[C@@H]1NC(=O)[C@@H]2CCCN2C(=O)[C@H](Cc2ccccc2)N(C)C(=O)[C@H](Cc2ccccc2)NC(=O)[C@H](C(C)C)N(C)C(=O)[C@@H](C2CCCCC2)OC(=O)[C@H]([C@@H](C)O)N(C)C(=O)[C@H](CC(C)C)NC(=O)[C@H](C(C)C)N(C)C1=O", "note": "[Compound 1, Cyclo-depsi-N-methyl-threonyl-(2-hydroxyl-2-cyclohexylacetyl)-N-methylvalyl-phenylanalyl-N-methylphenylanalyl-prolyl-allo-isoleucyl-N-methylvalyl-leucine] (cyclo(F[NMeF]P[aIle][NMeV]L[NMeT][X1][NMeV]))", "values": [
      {"measurement": "% Survival", "setting": "C. Albicans, C-43; 5 MPK IV", "value": 60, "unit": "%"},
      {"measurement": "CFUs (GM)", "setting": "C. Albicans, C-43; 5 MPK IV", "value": 6.90},
      {"measurement": "% Survival", "setting": "C. Albicans, C-43; 5 MPK PO", "value": 70, "unit": "%"},
      {"measurement": "CFUs (GM)", "setting": "C. Albicans, C-43; 5 MPK PO", "value": 6.68},
      {"measurement": "% Survival", "setting": "C. Albicans, C-43; 10 MPK IV", "value": 70, "unit": "%"},
      {"measurement": "CFUs (GM)", "setting": "C. Albicans, C-43; 10 MPK IV", "value": 7.11},
      {"measurement": "% Survival", "setting": "C. Albicans, C-43; 10 MPK PO", "value": 100, "unit": "%"},
      {"measurement": "CFUs (GM)", "setting": "C. Albicans, C-43; 10 MPK PO", "value": 6.01},
      {"measurement": "% Survival", "setting": "C. Albicans, C-43; 20 MPK PO", "value": 100, "unit": "%"},
      {"measurement": "CFUs (GM)", "setting": "C. Albicans, C-43; 20 MPK PO", "value": 6.38},
      {"measurement": "% Survival", "setting": "C. Albicans, C-43; 40 MPK PO", "value": 100, "unit": "%"},
      {"measurement": "CFUs (GM)", "setting": "C. Albicans, C-43; 40 MPK PO", "value": 6.52},
      {"measurement": "Geo. Mean MICs (μg/ml) Ca. (EMEM)", "setting": "[1]; [2]", "value": 0.288, "unit": "µg/mL"},
      {"measurement": "Geo. Mean MICs (μg/ml) Ca. (SDB)", "setting": "[1]; [3]", "value": 0.018, "unit": "µg/mL"}
    ]},
    {"smiles": "CC[C@@H](C)[C@@H]1NC(=O)[C@@H]2CCN2C(=O)[C@H](Cc2ccccc2)N(C)C(=O)[C@H](Cc2ccccc2)NC(=O)[C@H](C(C)C)N(C)C(=O)[C@@H](C2CCCCC2)OC(=O)[C@H]([C@@H](C)O)N(C)C(=O)[C@H](CC(C)C)NC(=O)[C@H](C(C)C)N(C)C1=O", "note": "[Compound 2, Cyclo-depsi-N-methyl-threonyl-(2-hydroxy-2-cyclohexylacetyl)-N-methylvalyl-phenylalanyl-N-methylphenylalanyl-azetidinyl-allo-isoleucyl-N-methylvalyl-leucine] (cyclo([Aze][aIle][NMeV]L[NMeT][X1][NMeV]F[NMeF]))", "values": [
      {"measurement": "Geo. Mean MICs (μg/ml) Ca. (EMEM)", "setting": "[1]; [2]", "value": 0.353, "unit": "µg/mL"},
      {"measurement": "Geo. Mean MICs (μg/ml) Ca. (SDB)", "setting": "[1]; [3]", "value": 0.062, "unit": "µg/mL"}
    ]},
    {"smiles": "CC[C@@H](C)[C@@H]1NC(=O)[C@@H]2CCN2C(=O)[C@H](Cc2ccccc2)N(C)C(=O)[C@H](Cc2ccccc2)NC(=O)[C@H](C(C)C)N(C)C(=O)[C@@H](C2CCCC2)OC(=O)[C@H]([C@@H](C)O)N(C)C(=O)[C@H](CC(C)C)NC(=O)[C@H](C(C)C)N(C)C1=O", "note": "[Compound 5] (cyclo([Aze][aIle][NMeV]L[NMeT][X3][NMeV]F[NMeF]))", "values": [
      {"measurement": "Geo. Mean MICs (μg/ml) Ca. (EMEM)", "setting": "[1]; 48 h", "value": 0.195, "unit": "µg/mL"},
      {"measurement": "Geo. Mean MICs (μg/ml) Ca. (SDB)", "setting": "[1]; 48 h", "value": 0.015, "unit": "µg/mL"}
    ]},
    {"smiles": "CC[C@@H](C)[C@@H]1NC(=O)[C@@H]2CCCN2C(=O)[C@H](Cc2ccccc2)N(C)C(=O)[C@H](Cc2ccccc2)NC(=O)[C@H](C(C)C)N(C)C(=O)[C@@H](C2CCCC2)OC(=O)[C@H]([C@@H](C)O)N(C)C(=O)[C@H](CC(C)C)NC(=O)[C@H](C(C)C)N(C)C1=O", "note": "[Compound 6] (cyclo(F[NMeF]P[aIle][NMeV]L[NMeT][X3][NMeV]))", "values": [
      {"measurement": "Geo. Mean MICs (μg/ml) Ca. (EMEM)", "setting": "[1]; 48 h", "value": 0.500, "unit": "µg/mL"},
      {"measurement": "Geo. Mean MICs (μg/ml) Ca. (SDB)", "setting": "[1]; 48 h", "value": 0.090, "unit": "µg/mL"}
    ]},
    {"smiles": "CC[C@@H](C)[C@@H]1NC(=O)[C@@H]2CCCCN2C(=O)[C@H](Cc2ccccc2)N(C)C(=O)[C@H](Cc2ccccc2)NC(=O)[C@H](C(C)C)N(C)C(=O)[C@@H](C2CCCCC2)OC(=O)[C@H]([C@@H](C)O)N(C)C(=O)[C@H](CC(C)C)NC(=O)[C@H](C(C)C)N(C)C1=O", "note": "[Compound 9] (cyclo(F[NMeF][Pip][aIle][NMeV]L[NMeT][X1][NMeV]))", "values": [
      {"measurement": "Geo. Mean MICs (μg/ml) Ca. (EMEM)", "setting": "[1]; 48 h", "value": 0.475, "unit": "µg/mL"},
      {"measurement": "Geo. Mean MICs (μg/ml) Ca. (SDB)", "setting": "[1]; 48 h", "value": 0.290, "unit": "µg/mL"}
    ]},
    {"smiles": "CC[C@@H](C)[C@@H]1NC(=O)[C@@H]2CCCN2C(=O)[C@H](Cc2ccccc2)N(C)C(=O)[C@H](Cc2ccccc2)NC(=O)[C@H](C(C)C)N(C)C(=O)[C@H](C2CC2)OC(=O)[C@H]([C@@H](C)O)N(C)C(=O)[C@H](CC(C)C)NC(=O)[C@H](C(C)C)N(C)C1=O", "note": "[Compound 8] (cyclo([X4][NMeV]F[NMeF]P[aIle][NMeV]L[NMeT]))", "values": [
      {"measurement": "Geo. Mean MICs (μg/ml) Ca. (EMEM)", "setting": "[1]; 48 h", "value": 0.780, "unit": "µg/mL"},
      {"measurement": "Geo. Mean MICs (μg/ml) Ca. (SDB)", "setting": "[1]; 48 h", "value": 0.133, "unit": "µg/mL"}
    ]},
    {"smiles": "CC[C@@H](C)[C@@H]1NC(=O)[C@@H]2CCCN2C(=O)[C@H](Cc2ccccc2)N(C)C(=O)[C@H](Cc2ccccc2)NC(=O)[C@H](C(C)C)N(C)C(=O)[C@@H](c2ccccc2)OC(=O)[C@H]([C@@H](C)O)N(C)C(=O)[C@H](CC(C)C)NC(=O)[C@H](C(C)C)N(C)C1=O", "note": "[Compound 7] (cyclo(F[NMeF]P[aIle][NMeV]L[NMeT][X2][NMeV]))", "values": [
      {"measurement": "Geo. Mean MICs (μg/ml) Ca. (EMEM)", "setting": "[1]; 48 h", "value": 0.710, "unit": "µg/mL"},
      {"measurement": "Geo. Mean MICs (μg/ml) Ca. (SDB)", "setting": "[1]; 48 h", "value": 0.170, "unit": "µg/mL"}
    ]},
    {"smiles": "CC[C@@H](C)[C@@H]1NC(=O)[C@@H]2CCCN2C(=O)[C@H](Cc2ccccc2)N(C)C(=O)[C@H](Cc2ccccc2)NC(=O)[C@H](C(C)C)N(C)C(=O)[C@@H](C(C)C)OC(=O)[C@H]([C@@H](C)O)N(C)C(=O)[C@H](CC(C)C)NC(=O)[C@H](C(C)C)N(C)C1=O", "note": "[Compound 4] (cyclo(F[NMeF]P[aIle][NMeV]L[NMeT][dHiv][NMeV]))", "values": [
      {"measurement": "Geo. Mean MICs (μg/ml) Ca. (EMEM)", "setting": "[1]; 48 h", "value": 0.500, "unit": "µg/mL"},
      {"measurement": "Geo. Mean MICs (μg/ml) Ca. (SDB)", "setting": "[1]; 48 h", "value": 0.032, "unit": "µg/mL"}
    ]}
  ]
}
